# Measurements taken from PMC4231751, “Highly potent dUTPase inhibition by a bacterial repressor protein reveals a novel mechanism for gene expression control” (Nucleic Acids Research, 2014).
# Target: T1, Φ11 dUTPase (Φ11DUT) (Staphylococcus phage phi 11, UniProt Q8SDV3)
# T1 construct: tag-free, expressed from pETDuet-1; Q-sepharose and Superdex 75; homotrimer
# Test: phenol red proton release assay, […] nm
# Type: biochemical
# Settings: 30 μM dUTP, 10 nM enzyme, 1 mM Hepes pH 7.5, 5 mM MgCl2, 150 mM KCl, 293 K
smiles,measurement,value
O=c1ccn([C@H]2C[C@H](O)[C@@H](COP(=O)(O)OP(=O)(O)OP(=O)(O)O)O2)c(=O)[nH]1 [dUTP],"phenol red proton release assay, 559 nm",Proton release during the transformation of dUTP into dUMP and PPi was followed continuously
